Results: paper PMC6683298, “Identifying potential novel drugs against Helicobacter pylori by targeting the essential response regulator HsrA” (Scientific Reports, 2019)

molecular target: T1, HsrA response regulator (HP1043) (Helicobacter pylori, UniProt O25684); test: isothermal titration calorimetry; format: binding; settings: read-out: ITC^a / Kd
T1 construct: gene HP_1043; N-terminal 6xHis tag, removed with thrombin; 223 residues; symmetric dimer
T1 sequence (O25684 1-223): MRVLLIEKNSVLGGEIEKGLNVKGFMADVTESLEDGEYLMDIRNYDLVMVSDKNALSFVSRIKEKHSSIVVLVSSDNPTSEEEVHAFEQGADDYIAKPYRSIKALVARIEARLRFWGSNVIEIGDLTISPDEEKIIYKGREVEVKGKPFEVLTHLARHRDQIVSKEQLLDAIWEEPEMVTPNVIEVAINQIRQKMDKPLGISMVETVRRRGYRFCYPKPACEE
Source text: isothermal titration calorimetry on HsrA response regulator (HP1043)

Row | Compound | Kd [µM]
1 | COc1ccc([C@@H]2CC(=O)c3c(O)cc(O)cc3O2)cc1O [hesperetin] | 26
2 | O=c1cc(-c2ccc(O)cc2)oc2cc(O)cc(O)c12 [apigenin] | 20
3 | O=c1c(O)c(-c2ccc(O)cc2)oc2cc(O)cc(O)c12 [kaempferol] | 33
4 | O=c1cc(-c2ccccc2)oc2cc(O)cc(O)c12 [chrysin] | 17
